Data reported in patent US8202554B2, “Extract of the family dioscoreaceae and composition for preventing or treating peripheral neuropathy comprising the same” (priority 2005, dated 2012).

How the values were obtained:
PC 12 cell = assay: Measurement of neurite outgrowth; assay type: cell-based; conditions: PC12 cells, neurite length measured after 48 hours, vs ethanol control
Experimental: In an incubator with conditions including 5% CO2 and a temperature of 37° C., PC 12 cell (pheochromocytoma, ATCC Number: CRL-1721) was cultured in a RPMI 1640 medium supplemented with horse serum (10%, v/v), fetal bovine serum (5%, v/v), and 1% penicillin-streptomycin
In order to find the effect of the compound of Formula 2 on the neurite outgrowth, the mediums supplemented with 2% horse serum, 1% fetal bovine serum, and 1% penicillin-streptomycin were added to each 6-well plate coated with poly-d-lysine and then the PC12 cells were inoculated in 5×10^4 cells each well. After 24 hours, these wells were treated with 10 □/ml of ethanol, 10 □/□ of the compound of Formula 2, and 50 ng/□ of a nerve growth factor (R&D system, USA), respectively. Then, after 48 hours, the length of the neurite was measured using an inverted image contrast microscope (CK-2, Olympus, USA) (See FIG. 1 and FIG. 2)

[1] = system: endogenous nerve growth factor; assay: Level of nerve growth factor in mouse serum (ELISA); assay type: in vivo; conditions: normal male ICR mice, 10 mg/kg orally once, after 24 hours
Experimental: The compound of Formula 2 was dissolved in 0.2 ml of a solution of dimethyl-sulfoxide:ethanol (3:1), and then orally administered once to 7-week old male ICR mice (n=7) in an amount of 10 mg/kg. After 24 hours, the amount of an endogenous nerve growth factor was measured by ELISA. As a control group, an ICR mouse was orally administered once with 0.2 ml of the dimethylsulfoxide:ethanol (3:1). Then, the amount of a nerve growth factor in the control group was measured in the same manner as described above.

[2] = system: endogenous nerve growth factor; assay: Level of nerve growth factor in serum of diabetes-induced mouse (ELISA); assay type: in vivo, alloxan-induced diabetic ICR mice; conditions: diabetes-induced mice, compound 10 mg/kg p.o., three times per week, one month
Experimental: An alloxan-induced diabetic mouse was prepared as an animal model having diabetic neuropathy, one of the multiple neuropathies.
7-week old male ICR mice underwent alimentary abstinence for 18 hours, and then alloxan dissolved in a physiological saline was once injected to them by intraperitoneal injection in an amount of 160 mg/kg to induce diabetes. Mice that maintained their fasting blood sugar to 200 mg/dl or more for one week, that is, diabetes-induced mice were selected and then divided into a control group (n=10), an extract-administered group (n=10), and a compound-administered group (n=10). The control group was administered with 0.2 ml of a solution of dimethylsulfoxide:ethanol (3:1), the extract-administered group was administered with the extract obtained according to Example 1 dissolved in a solution of dimethylsulfoxide:ethanol (3:1) in an amount of 100 mg/kg, and the compound-administered group was administered with the compound of Formula 2 dissolved in a solution of dimethylsulfoxide:ethanol (3:1) in an amount of 10 mg/kg. The all groups were orally administered three times per one week, and the entire administration period was one month. The amount of an endogenous nerve growth factor in the serum was measured by ELISA. […]

[3] = system: sciatic nerve of diabetes-induced mouse; assay: Transmission speed of motor nerve and sensory nerve of sciatic nerve in diabetes-induced mouse; assay type: in vivo, alloxan-induced diabetic ICR mice; conditions: diabetes-induced mice, 10 mg/kg p.o. three times per week
Experimental: The therapeutic effect of the compound according to the present invention on the diabetic neuropathy, one of the multiple neuropathies, was identified by measuring the effect of the compound according to the present invention on the transmission speed of the motor nerve and sensory nerve in the sciatic nerve.
7-week old male ICR mice underwent alimentary abstinence for 18 hours, and then alloxan dissolved in a physiological saline was once injected to them by intraperitoneal injection in an amount of 160 mg/kg to induce diabetes. Mice that maintained their fasting blood sugar to 200 mg/dl or more for one week, that is, diabetes-induced mice were selected and then divided into a control group (n=7), and a compound-administered group (n=7). The control group was administered with 0.2 ml of a solution of dimethylsulfoxide:ethanol (3:1), and the compound-administered group was administered with the compound of Formula 2 dissolved in a solution of dimethylsulfoxide:ethanol (3:1) in an amount of 10 mg/kg. 7-week old male ICR mice in which diabetes was not induced were grouped as a normal group (n=7), and the normal group was administered with 0.2 ml of a solution of dimethylsulfoxide:ethanol (3:1). […] Administration-completed mice were sacrificed by cervical dislocation, and then the skin and muscle in the femoral region were quickly removed. Then, left and right sciatic nerves were respectively separated in a length of 20 mm or more and stored in a physiological saline while air flows through the physiological saline. The separated sciatic nerves were placed on a 20 mm round measurement plate. Then, a sensor and a stimulating probe were connected to respective neuroterminals and the electrical conductivity was measured using a digital storage oscilloscope to assess the nerve transmission speed (see FIGS. 5 and 6.)
In general, the myelin is a phospholipid membrane surrounding axons with several layers, and also called as myelin sheath. […]

[4] = system: endogenous nerve growth factor; assay: Level of nerve growth factor in sciatic nerve of diabetes-induced mouse (ELISA); assay type: in vivo, alloxan-induced diabetic ICR mice; conditions: diabetes-induced mice, 10 mg/kg P.O three times per week, one month
Experimental: 7-week old male ICR mice underwent alimentary abstinence for 18 hours, and then alloxan dissolved in a physiological saline was once injected to them by intraperitoneal injection in an amount of 160 mg/kg to induce diabetes. Mice that maintained their fasting blood sugar to 200 mg/dl or more for one week, that is, diabetes-induced mice were selected and then divided into a control group (n=5), and a compound-administered group (n=5). The control group was administered with 0.2 ml of a solution of dimethylsulfoxide:ethanol (3:1), and the compound-administered group was administered with the compound of Formula 2 dissolved in a solution of dimethylsulfoxide:ethanol (3:1) in an amount of 10 mg/kg. The all groups were orally administered three times per one week, and the entire administration period was one month. The amount of an endogenous nerve growth factor in the sciatic nerve was measured by ELISA (see FIG. 7)
Accordingly, it is considered that the results shown in FIGS. 5 and 6 result from the nerve protecting function of the nerve growth factor.

[5] = system: sorbitol in the sciatic nerve; assay: Change in amount of sorbitol in sciatic nerve of diabetes-induced mouse (HPLC); assay type: in vivo, alloxan-induced diabetic ICR mice; conditions: diabetes-induced mice, 10 mg/kg p.o. three times per week, 2 weeks
Experimental: The therapeutic effect of the compound according to the present invention on the neuropathy was identified by measuring a change in the amount of sorbitol in the sciatic nerve.
7-week old male ICR mice underwent alimentary abstinence for 18 hours, and then alloxan dissolved in a physiological saline was once injected to them by intraperitoneal injection in an amount of 160 mg/kg to induce diabetes. Mice that maintained their fasting blood sugar to 200 mg/dl or more for one week, that is, diabetes-induced mice were selected and then divided into a control group (n=3), and a compound-administered group (n=3). The control group was administered with 0.2 ml of a solution of dimethylsulfoxide:ethanol (3:1), and the compound-administered group was administered with the compound of Formula 2 dissolved in a solution of dimethylsulfoxide:ethanol (3:1) in an amount of 10 mg/kg. 7-week old male ICR mice in which diabetes was not induced were grouped as a normal group (n=3), and the normal group was administered with 0.2 ml of a solution of dimethylsulfoxide:ethanol (3:1). […] Administration-completed mice were sacrificed by cervical dislocation, and then the amount of the sorbitol in the sciatic nerve was measured by HPLC (see FIG. 8). […]

[6] = system: sciatic nerve of diabetes-induced mouse; assay: Histological comparison of sciatic nerve of diabetes-induced mouse; assay type: in vivo, alloxan-induced diabetic ICR mice; conditions: diabetes-induced mice, compound 10 mg/kg p.o. three times per week, 2 months; toluidine blue, 600x/1200x
Experimental: The therapeutic effect of the compound according to the present invention on the neuropathy was identified by measuring a histological change of the sciatic nerve.
7-week old male ICR mice underwent alimentary abstinence for 18 hours, and then alloxan dissolved in a physiological saline was once injected to them by intraperitoneal injection in an amount of 160 mg/kg to induce diabetes. Mice that maintained their fasting blood sugar to 200 mg/dl or more for one week, that is, diabetes-induced mice were selected and then divided into a control group (n=5), an extract-administered group (n=5), and a compound-administered group (n=3). The control group was […] with 0.2 ml of a solution of dimethylsulfoxide:ethanol (3:1), the extract-administered group was administered with the extract obtained according to Example 1 dissolved in a solution of dimethylsulfoxide:ethanol (3:1) in an amount of 100 mg/kg, and the compound-administered group was administered with the compound of Formula 2 dissolved in a solution of dimethylsulfoxide:ethanol (3:1) in an amount of 10 mg/kg. All groups were treated three times by oral administration per one week, and the entire administration period was 2 months. […]

Molecule | neurite outgrowth (PC 12 cell; 50 ng/□ of nerve growth factor) | neurite outgrowth (PC 12 cell; 10 □/□ of the compound) | nerve growth factor in the serum relative to control group [1] | endogenous nerve growth factor in the serum relative to vehicle control group [2] | transmission speed of the sensory nerve, higher than diabetes-induced control group ([3]; one month) [%] | transmission speed of the motor nerve, higher than control group ([3]; two months) [%] | transmission speed of the sensory nerve, higher than control group ([3]; two months) [%] | nerve growth factor in the sciatic nerve, higher than vehicle control group [4] | sorbitol in the sciatic nerve, lower than diabetes-induced control group [5] [%] | histology of axon and myelin in the central part of the sciatic nerve [6]
nerve growth factor: nerve growth factor (R&D system, USA), positive control for neurite outgrowth [reference compound] | neurite outgrowth was induced |  |  |  |  |  |  |  |  | 
C[C@@H]1CC[C@@]2(OC1)O[C@H]1C[C@H]3[C@@H]4CC=C5C[C@@H](O)CC[C@]5(C)[C@H]4CC[C@]3(C)[C@H]1[C@@H]2C [compound of Formula 2, 3beta, 25R-spirost-5-en-3-ol] |  | neurite outgrowth was induced | about 2.5 times | four | 25 | 40 | 45 | about 30% | 10 | clearly observed
